Measured values reported in the supplement of paper PMC10307832.

Tests used:
Assay in all cases: relative viability (nuclei count vs DMSO), 5 days (fraction); higher = more cells survive
[1] = compound: CC[C@@H](C)CNCC(=O)N1CCC2=C([C@@H]1COC3=CC=CC(=C3)C)C=CS2 [RU-SKI 43] + Cc1nc(NC(=O)N2CCC[C@H]2C(N)=O)sc1-c1ccnc(C(C)(C)C(F)(F)F)c1 [Alpelisib] (partner 2 µM)
Summary of the method: (§1)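 Lung cancer cell lines in 1536-well plates got either a single drug or a fixed anchor-drug dose together with five library-drug doses (not always all listed) in √10 steps, by pin tool, on the day after seeding. Nuclei were counted after 5 days, and relative viability is the treated-to-vehicle ratio of nuclei counts. Values are medians of duplicate plates.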

[2] = compound: CCc1c2c(nc3ccc(OC(=O)N4CCC(N5CCCCC5)CC4)cc13)-c1cc3c(c(=O)n1C2)COC(=O)[C@]3(O)CC [Irinotecan] + Cc1cc(Nc2cc(N3CCN(C)CC3)nc(Sc3ccc(NC(=O)C4CC4)cc3)n2)n[nH]1 [Tozasertib] (partner 0.1 µM)
Summary of the method: as §1

[3] = compound: CC[C@@H](C)CNCC(=O)N1CCC2=C([C@@H]1COC3=CC=CC(=C3)C)C=CS2 [RU-SKI 43] + CC1(C)CCC(c2ccc(Cl)cc2)=C(CN2CCN(c3ccc(C(=O)NS(=O)(=O)c4ccc(N[C@H](CCN5CCOCC5)CSc5ccccc5)c(S(=O)(=O)C(F)(F)F)c4)cc3)CC2)C1 [Navitoclax] (partner 0.5 µM)
Summary of the method: as §1

[4] = compound: Cn1cc(-c2cnc3ccc4ccc(CS(=O)(=O)NCc5ccccn5)cc4c(=O)c3c2)cn1 [MK-8033] + O=C(CCCCCCC(=O)Nc1ccccc1)NO [Vorinostat] (partner 1 µM)
Summary of the method: as §1

UMC-11 showed a relative viability ([1]; first compound 0.1 µM) of 1.06, a relative viability ([1]; first compound 0.3162 µM) of 1.18 and a relative viability ([1]; first compound 1 µM) of 1.16. The relative viability ([1]; first compound 3.162 µM) was 1.04, the relative viability ([1]; first compound 10 µM) was 0.901 and the relative viability ([2]; first compound 0.6325 µM) was 0.194. It also gave a relative viability ([2]; first compound 2 µM) of 0.25, a relative viability ([2]; first compound 6.325 µM) of 0.268 and a relative viability ([2]; first compound 20 µM) of 0.247. For the same cell line, the relative viability ([3]; first compound 0.1 µM) was 0.276, the relative viability ([3]; first compound 0.3162 µM) was 0.315 and the relative viability ([3]; first compound 1 µM) was 0.321. It also gave a relative viability ([3]; first compound 3.162 µM) of 0.305, a relative viability ([3]; first compound 10 µM) of 0.267 and a relative viability ([4]; first compound 0.02 µM) of 0.32. It also gave a relative viability ([4]; first compound 0.06325 µM) of 0.345, a relative viability ([4]; first compound 0.2 µM) of 0.46 and a relative viability ([4]; first compound 0.6325 µM) of 0.419. It also gave a relative viability ([4]; first compound 2 µM) of 0.409.
